Measured values from patent US8703188B1, “Dispersible tablet” (Azanta A/S, priority 2012, dated 2014).
Converted amounts (≈) assume the structure as drawn.

What was measured:
[1] = Solubility of Nimorazole in water; format: physicochemical
[2] = The Merck Index, 14th Edition; cited from earlier work

## O=[N+]([O-])c1cncn1CCN1CCOCC1 [Nimorazole]
[1]
  solubility: 4910 µg/mL (≈ 21.7 mM)
[2]
  solubility in water: slightly soluble
